The source of these data is US20080293936A1, “Novel inhibitors of lysyl oxidase” (priority 2007, published 2008).

Assay [1] addresses T1, Lysyl oxidase (Bos taurus, UniProt P33072).
T1 construct: The enzyme preparation was carried out at 4° C. with fresh material from bovine aorta; from tissue; host or cells: bovine aorta
T1 sequence (P33072 170-418): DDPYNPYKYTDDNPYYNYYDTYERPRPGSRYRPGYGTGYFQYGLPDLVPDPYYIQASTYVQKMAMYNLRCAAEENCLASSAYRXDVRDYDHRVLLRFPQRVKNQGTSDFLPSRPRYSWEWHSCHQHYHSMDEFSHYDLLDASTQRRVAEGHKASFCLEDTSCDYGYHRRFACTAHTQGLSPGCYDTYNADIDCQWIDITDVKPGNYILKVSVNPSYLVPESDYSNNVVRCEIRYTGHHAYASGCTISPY
The assay is described as follows: Kinetic investigation: dialysis of lysyl oxidase-inhibitor complexes against inhibitor-free buffer, recovery of activity. The assay is classed as biochemical, bovine. To be noted: for vt/vmax: preincubation at 10-fold IC50; for k−1: calculated from slopes; for kon: pH 8.2, from k−1 and IC50, read-out: k1 (association velocity constant) (converted). How it is done: Lysyl oxidasee and lysyl oxidase inhibitors of the structural formulas (XX)-(XXIII) (Table 1) were coincubated at concentrations that were 10-fold over the respective IC50 of the inhibitor and were subsequently dialyzed against 0.5 M borax buffer at pH 8.2 without added inhibitor. The dialysis buffer was exchanged twice during the first hour and subsequently three times in hourly intervals. The volume against which was dialyzed was at least 100-fold greater than the volume of the lysyl oxidase preparation in the dialysis tube. After 2, 4, 5 und 19 h lysyl oxidase activity was measured as described in Example 2. In a parallel assay a dialysis with a non-inhibited lysyl oxidase preparation was carried out to determine the effect of spontaneous activity loss during dialysis and to obtain a reference value (100% activity, positive control). From the obtained change in time-dependent activity it was possible to calculate the dissociation velocity constants of the inhibitor compounds, the half life times of the enzyme-inhibitor complexes and the association velocity constants. In the following section it is derived how these kinetic parameters can be determined form the measurement of the reaction velocity with the inhibited fraction at the timepoint t (vt) and the reaction velocity with the positive control (vmax).
Derivations: During dialysis against buffer without inhibitor the complex (EI) consisting of enzyme (E) and inhibitor (I) decays with a dissociation constant of first k−1
The velocity of decay is proportional to the concentration of the enzyme-inhibitor complex:
Rearranging this equation and definite Integration from the initial enzyme-inhibitor-complex concentration ([EI]0) to the concentration of the complex at the measurement time point t ([EI]t) on the left side and from t=0 to t on the right side yields:
The ratio of the reaction velocity when the inhibited enzyme preparation is used at a measurement time point t (vt) to the reaction velocity when the positive control is used (vmax) is dependent on the proportion of the total enzyme concentration in the assay ([E]0) that is present as enzyme-inhibitor-complex concentration at a time point t ([EI]t). The following equation describes this relationship: […]
For reasons of simplification a variable Rt can be defined
Solving the above differential equation and substituting Rt into the equation one obtains: […]
By linear regression with ln Rt and t, k−1 can be determined as the coefficient of slope.
Using k−1 one can calculate the half-life time of the enzyme-inhibitor-complexes (t1/2) as:
To determine the kinetic association constant the equilibrium is considered:
At the particular inhibitor concentration (IC50) at which the reaction velocity is 50% of the reaction velocity of the positive control, the free enzyme concentration ([E]) is approximately equal to the concentration of the enzyme inhibitor complex ([EI])
By substitution into the equilibrium equation and by simple rearrangement one obtains a term for the association constant which is dependent on the dissociation constant determined above and on the IC50:
Results Tables 2a to 2d show the results from reaction velocity measurements at the time points after 0, 120, 270 and 1140 min of dialysis against an inhibitor-free buffer. The relative reaction velocities and the derived constants are provided. In addition, the results of a regression analysis according to Example 3 are provided, from which the kinetic constants from table 3 can be calculated. Results are shown for compounds (XX)-[…].

The target of assay [2] is T1, Lysyl oxidase. The assay is described as follows: Lysyl oxidase inhibition, peroxidase-coupled fluorometric activity test. Type of assay: biochemical, bovine. How it is done: Lysyl oxidase was isolated form bovine aorta, modified according to Williams und Kagan (1985) Assessment of lysyl oxidase variants by urea gel electrophoresis: evidence against disulfide isomers as bases of the enzyme heterogeneity. Anal. Biochem. 149: 430-7, and Kagan und Sullivan (1982) Lysyl oxidase: preparation and role in elastin biosynthesis. Methods Enzymol. 82(Pt A): 637-50. The enzyme preparation was carried out at 4° C. with fresh material from bovine aorta. The aorta was homogenized for 90 seconds in 2.5. ml buffer per gram of tissue. The buffer consisted of 16 mM potassium phosphate, 150 mM sodium chloride and 1 mM phenylmethylsulfonylfluoride. The homogenized mixture was centrifuged for 20 minutes at 11,000 g. The homogenization was followed by a centrifugation step and was repeated with 150 mM sodium chloride buffer and 1 M urea buffer. The pellet that was obtained after centrifugation was homogenized in buffer plus 4 M urea, was stirred over night and centrifuged twice. The supernatants with the lysyl oxidase activity were stored each time.
To determine the specific enzyme activity of lysyl oxidase a coupled activity test with fluorescence was applied (modified according to nach Trackman P C, Zoski C G, Kagan, H M (1981) Development of a peroxidase-coupled fluorometric assay for lysyl oxidase. Anal. Biochem. 113: 336-342).
Into a 2 ml plastic cuvette the following reaction solution was pipetted:
The fluorescence of the reaction solution was determined at an excitation wavelength of 350 nm and measurement of emission was carried out at 425 nm at 37° C. Before the addition of the sample solution fluorescence was determined by calibration with 1 nmol hydrogen peroxide. This increase in fluorescence was equivalent to a turnover of 1 nmol 1,5-diaminopentane. As a positive control the time course of the increase in fluorescence when an equivalent volume of lysyl oxidase without inhibitor was added, was used. The development of fluorescence of the assay without the addition of lysyl oxidase used as a negative control. […]

The mark [3] stands for this setting: regression analysis below Tables 2a-2d.

On to `COCCc1ccc(Oc2c(-n3ccnc3)cnn(-c3ccc(Cl)cc3)c2=O)cc1` [(XX), 2-(4-chlorophenyl)-5-(1H-imidazole-1-yl)-4-[4-(2-methoxyethyl)phenoxy]pyridazine-3(2H)-one], for which the Rt on Lysyl oxidase [1] (0 min of dialysis) is reported as 1; at Lysyl oxidase [1] (120 min of dialysis), 0.91; on Lysyl oxidase [1] (270 min of dialysis), 0.72; on Lysyl oxidase [1] (1,140 min of dialysis) it was 0. Also, the “ln Rt” value at Lysyl oxidase [1] (0 min of dialysis) is on record as 0; at Lysyl oxidase [1] (120 min of dialysis) it was −9.431 × 10^−2; on Lysyl oxidase [1] (270 min of dialysis), −0.3285. Moreover, the vt/vmax is recorded as 0 at Lysyl oxidase [1] (0 min of dialysis), 9 × 10^−2 on Lysyl oxidase [1] (120 min of dialysis), 0.28 at Lysyl oxidase [1] (270 min of dialysis) and 1 at Lysyl oxidase [1] (1,140 min of dialysis). Besides, the “k−1” value on Lysyl oxidase [1] (Table 3) was 0.053 h⁻¹. Besides, the kon at Lysyl oxidase [1] (Table 3) was 13.6 M⁻¹ s⁻¹.

Regarding `O=c1c(Oc2ccc(-c3ccccc3)cc2)c(-n2ccnc2)cnn1-c1ccc(Cl)cc1Cl` [(XXII), 4-(1,1′-biphenyl-4-yloxy)-2-(2,4-dichlorophenyl)-5-(1H-imidazole-1-yl)pyridazine-3(2H)-one], on Lysyl oxidase [1] (0 min of dialysis), the Rt stood at 1, the “ln Rt” value is 0 and the vt/vmax was determined as 0. Moreover, on Lysyl oxidase [1] (120 min of dialysis), the Rt stood at 0.75, the “ln Rt” value was −0.2877 and the vt/vmax was determined as 0.25. In addition, on Lysyl oxidase [1] (270 min of dialysis), the Rt amounted to 0.64, the “ln Rt” value is on record as −0.4463 and the vt/vmax came out at 0.36. Besides, on Lysyl oxidase [1] (1,140 min of dialysis), the Rt is reported as 0.33, the “ln Rt” value is −1.109 and the vt/vmax is recorded as 0.67. At Lysyl oxidase [1] (Table 3), the “k−1” value is 0.074 h⁻¹ and the kon is 75 M⁻¹ s⁻¹. In addition, at Lysyl oxidase [1] (setting [3]), the “k−1 (dissociation velocity constant)” value is 0.05344 h⁻¹.

For `CCCc1ccc(Oc2c(-n3ccnc3)cnn(-c3ccc(Cl)cc3)c2=O)cc1` [(XXIII), 2-(4-chlorophenyl)-5-(1H-imidazole-1-yl)-4-(4-propylphenoxy)pyridazine-3(2H)-one], the half-maximal inhibitory concentration (IC50) against Lysyl oxidase [2] (Table 1, lysyl oxidase from bovine aorta, 37° C., pH 8.2) is 1470 nM; against Lysyl oxidase [2] (Table 3) it was 1470 nM; on Lysyl oxidase [2] (as quoted in titles of Tables 2a-2d), about 1470 nM. Moreover, the Rt at Lysyl oxidase [1] (0 min of dialysis) turned out to be 0.84; on Lysyl oxidase [1] (120 min of dialysis), 0.47; on Lysyl oxidase [1] (270 min of dialysis), 0.37; at Lysyl oxidase [1] (1,140 min of dialysis), 0.11. Further, the “ln Rt” value on Lysyl oxidase [1] (0 min of dialysis) was −0.1744; at Lysyl oxidase [1] (120 min of dialysis), −0.7550; on Lysyl oxidase [1] (270 min of dialysis), −0.9943; on Lysyl oxidase [1] (1,140 min of dialysis), −2.207. In addition, the vt/vmax on Lysyl oxidase [1] (0 min of dialysis) came to 0.16; on Lysyl oxidase [1] (120 min of dialysis), 0.53; on Lysyl oxidase [1] (270 min of dialysis) it was 0.63; at Lysyl oxidase [1] (1,140 min of dialysis), 0.89. Moreover, at Lysyl oxidase [1] (Table 3), the “k−1” value is 0.097 h⁻¹. In addition, on Lysyl oxidase [1] (Table 3, from k−1, read-out: t1/2 (half-life time of the enzyme-inhibitor complex) (converted)), the residence time was 438 min. On Lysyl oxidase [1] (Table 3), the kon was 18.3 M⁻¹ s⁻¹. Further, the “k−1 (dissociation velocity constant)” value at Lysyl oxidase [1] (setting [3]) stood at 0.09694 h⁻¹. Besides, at Lysyl oxidase [1] (setting [3]), the “slope (linear regression of ln Rt against t)” value is −1.616×10^−3 1/min.

By IC50 is commonly meant the concentration that inhibits the measured activity by half. A high value points to weaker potency in that assay.
